The results in this text go back to article PMC9767416, “Discovery of small molecule mechanistic target of rapamycin inhibitors as anti-aging and anti-cancer therapeutics” (Frontiers in Aging Neuroscience, 2022).

Series [1] deals with BJ, RPE-1 and U373 cells. The experiment in a line: Crystal violet and resazurin proliferation screen in proliferating cells. The format is cell-based, human. The conditions noted are these: RPE-1, U373, 0, 10, 50, 80, 100 μM, 24 h. As for the experimental part:
All cell lines used in the study were obtained from the American Type Culture Collection (ATCC, Manassas, VA, USA). Human telomerase-immortalized retinal pigment epithelial cells RPE-1, glioblastoma U-87 MG, glioblastoma U373MG, glioblastoma T98G, glioblastoma A-172, breast adenocarcinoma MDA-MB-231, prostate carcinoma DU-145, and non-small cell lung cancer NCI-H1299 cell lines were cultured in Dulbecco’s modified Eagle’s medium (DMEM, Thermo Fisher Scientific, Waltham, MA, USA) with high glucose (4.5 g/L). Primary human skin BJ fibroblasts were cultured in Dulbecco’s modified Eagle’s medium (DMEM, Thermo Fisher Scientific, Waltham, MA, USA) with low glucose (1 g/L). Both cell culture media were supplemented with 10% fetal bovine serum (FBS, Gibco/Thermo Fisher Scientific) and non-essential amino acids (NEAA), 100 units/mL of penicillin, and 100 μg/mL of streptomycin (Sigma-Aldrich). Cells were kept at 37°C under a 5% CO2 atmosphere and 95% humidity.
Twenty-four hours before treatment, cells were plated in 96-well plates at densities of 2,850 cells per well for senescent RPE-1 (IR-RPE-1), 3,350 cells per well for proliferating RPE-1 and senescent BJ (DIS-BJ), and 5,000 cells per well for U373, T98, A172, U87, TMZ-U87, and proliferating BJ cells.
For the crystal violet assay, the cells were washed twice with 150 μL PBS and stained with 30 μL 0.5% (w/v) crystal violet in 20% methanol for 15 mins. Next, the plates were washed five times with ddH2O and left to dry overnight. Crystal violet was solubilized with 75 μL 0.2% Triton X-100 (Sigma) in PBS for 15 mins. The absorbance was read at 595 nm using a microplate reader (Envision, PerkinElmer, Waltham, MA, USA). The absorbance of crystal violet in treated cells was expressed as a percentage of absorbance in untreated cells. Each condition was measured at least in triplicate.
For the resazurin assay, 200 μL of the culture medium of each well was exchanged for 100 μL of resazurin (stock solution 30 mg/mL; Sigma, St. Louis, MO, USA) diluted 10 times in the culture medium, and the cells were incubated at 37°C for 1–3 h. Reading of fluorescence was done using a microplate reader (PerkinElmer, Waltham, MA, USA). Absolute values of fluorescence were related to the values of untreated cells. Each condition was measured at least in triplicate.

Series [2] can be described thus: Shake-flask partition coefficient logP and distribution coefficient logD (pH 7.4). The format is physicochemical. As for the experimental part: Before the initiation of the intended experiments, all solvents were mutually saturated at 21°C. […] For saturation, large stock bottles containing n-octanol and 12% of water/buffer or water/buffer and 12% of n-octanol were shaken for 30 mins on a mechanical shaker and subsequently left to stand on the bench overnight until the phases separated. Approximately 0.50 mg of tested substance was added to the test vessels alongside with 1:1 volume ratio of saturated solvents (250 μL). The test vessels were shaken on the mechanical shaker (Multi Reax, Heidolph Instruments, Schwabach, Germany) for 30 min at the highest speed and then centrifuged for phase separation (16.873 × g for 5 min; Eppendorf 5418 Microcentrifuge, Prague, Czech Republic). Both organic and aqueous phases were sampled for LC-MS analysis. UHPLC-DAD-MS (UHPLC Infinity II 1290, detection by DAD and QqQ 6470; Agilent Technologies, CA, USA; separation on Arion C18 polar column 100 × 2.1 mm, 2.1 μm; Chromservis, Czech Republic) was used for determination of the exact concentration of tested substances. The total quantity of substance (in both phases) was used for logP/logD values calculation.

Series [3] has as its system RPE-1 cells. The experiment in a line: Time-lapse microscopy (Incucyte) of proliferating RPE-1. The format is cell-based, human. The conditions noted are these: higher concentrations 80–100 μM, 72 h. As for the experimental part:
(§1) For auto-monitoring of cells, Incucyte SX1 Live-Cell Analysis System (Sartorius, Göttingen, Germany), located in an incubator maintained at 37°C under a 5% CO2 atmosphere and 95% humidity, was utilized. The images (1,408 × 1,040 pixels at 1.24 microns/pixel) were acquired using a 10× objective lens in phase contrast, red fluorescence (excitation: 585 ± 20 nm, emission: 635 [625, 705] nm, acquisition time: 100 ms) channels every 60 min during 72 h. The first image was acquired 30 min after adding compounds. The images were processed to measure cell confluence using Incucyte software (version 2022A). Annexin V – Dy647, Apronex (diluted 1:1,000) was used for apoptotic cell staining.

In series [4] the test system is U373 cells. The experiment in a line: Time-lapse microscopy (Incucyte) of U373. The format is cell-based, human. As to conditions: 100 μM, 72 h. As for the experimental part:
as §1

Series [5] in a line: Solubility by nephelometry (water, buffer pH 7.4). The format is physicochemical. As for the experimental part:
Compounds’ solubility was measured by the NEPHELOstar microplate instrument (BMG Labtech, Offenburg, Germany). Stock solutions were prepared by dissolving the tested compounds in ultrapure water or sodium phosphate buffer (pH 7.4) to obtain a concentration of 160 and 1,000 μg/mL. Each stock solution was sonicated at full power by Hielscher UP100H needle ultrasonic processor (Teltow, Germany) before loading into NEPHELOstar instrument injector A. Ultrapure water or sodium phosphate buffer was loaded into injector B. Compound was diluted in 48 wells in 0–160 or 0–1,000 μg/mL range and subsequently shook for 30 s. Each well was scanned with 80% laser power in matrix 3 × 3, beam width 2 mm, and obtained data were evaluated in GraphPad Prism 7.03 (GraphPad Software, San Diego, CA, USA) using segmental linear regression.

≈ marks a conversion by molar mass, not a printed value. Read-outs that look alike come from different tables or passages of the source.

Take `O=C(O[C@@H]1Cc2c(O)cc(O)cc2O[C@@H]1c1ccc(O)c(O)c1)c1cc(O)c(O)c(O)c1` [Compound 7, epicatechin gallate]: the “effect on the readout of crystal violet and resazurin assays” value in series [1] is on record as “mild (although sometimes statistically significant) suppressive effect”. The logD in series [2] (n-octanol/sodium phosphate buffer, pH 7.4, shake-flask, n-octanol/sodium phosphate buffer pH 7.4, read-out: logD) was 1.52 ± 0.01. The logP in series [2] (n-octanol/water, shake-flask, n-octanol/water, read-out: logP) is 1.48 ± 0.03. The “effect on cell proliferation (cell confluence, time-lapse)” value in series [3] and in series [4] was “cytostatic effect” in each case. The solubility kinetic at 30 s is above 1000 µg/mL in series [5] (aqueous buffer, sodium phosphate buffer pH 7.4, nephelometry, read-out: Sol. (buffer 7.4)) and 789 µg/mL (≈ 1780 µM) in series [5] (ultrapure water, nephelometry, read-out: Sol. (H2O)). The “logSpH 7.4” value in series [5] (buffer pH 7.4) is above −2.65. Besides, the solubility at 30 s in series [5] (medium not told apart (water and buffer pH 7.4)) was above 1000 µg/mL. Besides, in series [5] (water), the logSH2O was −2.75.
